The record followed here is US20140186872A1, “BISACODYL AND ITS ANALOGUES AS DRUGS FOR USE IN THE TREATMENT OF CANCER” (CENTRE NATIONAL DE LA RECHERCHE SCIENTIFIQUE- CNRS, priority 2011, published 2014).

Each structure is given as a SMILES string. Structures can show the parent of a compound that is named as a salt.

For data set [1], the system named is proliferating TG1 glioblastoma stem cells. Put plainly: ATP-Glo (Cell Titer Glo) cell viability, dose/response, proliferating TG1 cells. It is filed as cell-based, human. To be noted: for EC50: Homo sapiens, Glioblastoma stem cell, TG1-A P, experimental protocol of Example 12, ATP-Glo; for EC50 / effect on survival of proliferating TG1 cells: 24 h; for effect on survival of proliferating TG1 cells: own culture medium. The protocol:
The TG1 proliferating cells correspond to cells for which medium is renewed regularly, twice weekly.
The proliferating cells were put back in 1 mL of fresh NS34 medium, dissociated mechanically by pipetting up and down 100 times with a P1000 micropipette preset to 400 μl and counted with Trypan Blue, after dilution in fresh NS34 medium, to obtain a final suspension of 6×10^5 cells/mL.
(§1) 50 μl of solution containing cells was deposited per well in a 96-well plate (Greiner #655090).
(§2) The test compounds, in solution of 100% of DMSO were diluted in culture medium: in the absence of DMSO (medium 0% DMSO) or in the presence of 2% of DMSO (medium 2% DMSO) at concentrations of 200 μM, 100 μM, 80 μM, 60 μM, 40 μM, 20 μM, 10 μM and 2 μM. For all these dilutions the final concentration in DMSO was 2% (see Table 1 below; volumes shown make it possible to construct dose/response curves, in triplicate, for 1 compound on a 96-well plate—FIG. 1)
50 μL of solution of compound was added at the concentrations specified above to 50 μL of cells in the plate (FIG. 1) (Final concentration of compounds in contact with the cells: 100 μM, 50 μM, 40 μM, 30 μM, 20 μM, 10 μM, 5 μM, 1 μM (in 1% of final DMSO). Final concentration of positive control: 50 μM in 1% of final DMSO. Final concentration of negative control: 1% final DMSO). […]
(§3) The test of cell viability was carried out using the Cell Titer Glo kit (Promega #G7571). After thawing of the Cell Titer Glo reagent (1 Buffer vial+1 Substrate vial per plate) protected from the light, the contents of the Buffer vial were transferred to the Substrate vial. 100 μl of Cell Titer Glo reagent was deposited on the cells treated with the compounds.
(§4) The results, which were given for each well in strokes per second (sps), were converted to percentage cell survival relative to the control 1% of DMSO, which was fixed at 100%.
(§5) The EC50 was determined as the concentration that gives 50% of the response.
(§6) Glioblastoma (WHO grade IV glioma) stem cells (TG1, TG16 and OB1) were derived from tumor samples of 3 patients at Sainte Anne Hospital (Paris, France), as previously described (48) and expanded as neurosphere cultures. In continuously proliferating cultures, neurospheres were mechanically dissociated into a single-cell suspension twice a week with 90% renewal of their culture medium. Quiescent glioblastoma stem cells were obtained by non-renewal of the culture medium for 9-16 days following cell seeding. The non-proliferating state was assessed by decreased ability of the cells to incorporate EdU (5-ethynyl-2′-deoxyuridine) using the Click-iT™ EdU Flow Cytometry Assay Kit (Invitrogen, France) according to the manufacturer's instructions. […]
(§7) Confirmed hit compounds from the primary and secondary screens were purchased from Prestwick Chemical and dissolved in DMSO to obtain 10 mM concentrated stock solutions. Hit compound validation was obtained through dose-response curves on the viability of TG1 glioblastoma stem cells under the same experimental conditions (cell density, treatment duration) as described for the primary and secondary screens. Each compound was tested in triplicate in at least three independent experiments on proliferating and quiescent glioblastoma stem TG1 cells.
(§8) The EC50 value was determined for each compound by fitting the data points according to the following equation: […]
(§9) where y represents the expected response (expressed as a percentage of cell viability), x is the chemical compound concentration, Smax and Smin are the maximum and minimum viability responses recorded, respectively, and n is the Hill coefficient. Curve fitting was performed using the Microsoft Excel Solver component.

In data set [2] the test system is quiescent TG1 glioblastoma stem cells. Put plainly: ATP-Glo (Cell Titer Glo) cell viability, dose/response, quiescent TG1 cells. It counts as cell-based, human. The following applies: 24 h; for EC50: Homo sapiens, Glioblastoma stem cell, TG1-A Q, experimental protocol of Example 12, ATP-Glo, read-out: EC50 Quiescent TG1; for effect on survival of quiescent TG1 cells (words): own conditioned medium. The protocol:
The TG1 cells were put into quiescence by keeping the cells in culture without changing the medium from 9 to 16 days. The state of quiescence was verified by non-incorporation of nucleotides into the DNA of the cells (see example 9).
The quiescent cells were put back in 1 mL of conditioned medium, dissociated mechanically by pipetting up and down 100 times with a P1000 micropipette preset to 400 μl and counted with Trypan Blue, after dilution in conditioned medium, to obtain a final suspension of 8.10^5 cells/mL.
as §1, §2
50 μL of solution of compound was added at the concentrations specified above to 50 μL of cells in the plate (FIG. 1) (Final concentration of compounds in contact with the cells: 100 μM, 50 μM, 40 μM, 30 μM, 20 μM, 10 μM, 5 μM, 1 μM (in 1% of final DMSO). Final concentration of positive control: 50 μM in 1% of final DMSO. Final concentration of negative control: 1% final DMSO).
The cells were incubated for 23 to 24 hours at 37° C. in an incubator in the presence of 5% CO2 (under humid atmosphere at 95% provided by a reservoir filled with distilled water).
as §3, §4, §5, §6, §7, §8, §9

Data set [3] has as its system human fetal neural stem cells (f-NSC cells). Put plainly: ATP-Glo cell viability on fetal neural stem cells. It counts as cell-based.

In the case of `Oc1ccc(C(c2ccc(O)cc2)c2cccnc2)cc1`, the EC50 in data set [1] is over 100 µM; in data set [2], 8 ± 3 µM.
On the same counts, the results for `Oc1ccc(C(c2ccncc2)c2ccc(O)cc2)cc1` are over 100 µM and 39 ± 2 µM.
On the same counts, the results for `CC(=O)Oc1ccc(C(c2ccc(O)cc2)c2ccccn2)cc1` (stereo not shown) are over 100 µM and 1 ± 0.5 µM.
Take `CC(=O)Oc1ccc(C(c2ccc(O[Si](C)(C)C(C)(C)C)cc2)c2ccccn2)cc1` (stereo not shown): the figures for the EC50 in data set [1] and in data set [2] were 12 ± 0.1 µM and 12.1 ± 0.6 µM, respectively.
On the same counts, the results for `CC(C)(C)[Si](C)(C)Oc1ccc(C(c2ccc(O)cc2)c2ccccn2)cc1` (stereo not shown) are 13 ± 5 µM and 13 ± 3 µM.
On the same counts, the results for `COc1ccc(C(c2ccc(O)cc2)c2ccccn2)cc1` (stereo not shown) are over 100 µM and 8 ± 6 µM.
On the same counts, the results for `C#CCOc1ccc(C(c2ccc(O)cc2)c2ccccn2)cc1` (stereo not shown) are 39 ± 6 µM and 3 ± 1 µM.
For the compound `CCCC(C)Oc1ccc(C(c2ccc(O)cc2)c2ccccn2)cc1` (stereo not shown), the EC50 in data set [1] turned out to be 55 ± 8 µM; in data set [2], 40 ± 10 µM.
With `CCCCCCCCCOc1ccc(C(c2ccc(OC(C)=O)cc2)c2ccccn2)cc1` (stereo not shown), the EC50 worked out at 25.5 ± 0.6 µM in data set [1] and 22 ± 2 µM in data set [2].
On the same counts, the results for `CCCCCCCCCOc1ccc(C(c2ccc(O)cc2)c2ccccn2)cc1` (stereo not shown) are 25 ± 4 µM and 22 ± 3 µM.
On the same counts, the results for `c1ccc(C(c2ccccc2)c2ccccn2)cc1` are over 100 µM and 81.9 µM.
On to `Nc1ncccc1C(c1ccc(O)cc1)c1ccc(O)cc1`, for which the EC50 in data set [1] was over 100 µM; in data set [2], 32 ± 2 µM.
Taken in the same sequence, the figures for `Clc1ccc(C(c2ccc(Cl)cc2)c2ccccn2)cc1` were 34 ± 3 µM and 35.5 ± 4.5 µM.
On the same counts, the results for `Oc1ccc(C(c2ccccc2)c2ccc(O)cc2)cc1` are 60.8 ± 10.4 µM and 14.2 ± 8.8 µM.
Taken in the same sequence, the figures for `Oc1ccc(C(c2ccccn2)c2ccccc2O)cc1` (stereo not shown) were over 100 µM and 57.6 ± 0.7 µM.
As to `Oc1ccc(C(c2ccccc2)c2ccccn2)cc1` (stereo not shown), the values for the EC50 in data set [1] and in data set [2] were over 100 µM and 17.1 ± 6.3 µM, respectively.
Taken in the same sequence, the figures for `Oc1ccc(C(c2ccc(Cl)cc2)c2ccccn2)cc1` (stereo not shown) were over 100 µM and 4 ± 1.4 µM.
On the same counts, the results for `Oc1ccc(C(c2ccc(O)cc2)c2cncc(Br)c2)cc1` are over 100 µM and 5 µM.
Turning to `Oc1ccc(C(c2ccc(C(F)(F)F)cc2)c2ccccn2)cc1` (stereo not shown), the EC50 was over 100 µM in data set [1] and 17.3 µM in data set [2].
Take `CC(=O)Oc1ccc(C(c2ccc(O)cc2)c2ccccn2)cc1` (racemic) [Compound 3, 4-((4-Hydroxyphenyl)(pyridin-2-yl)methyl)phenyl acetate]: the “effect on survival of quiescent TG1 cells (words)” value (“effect on survival … (words)” below) in data set [2] is “effect similar to that described for bisacodyl”. Further, the “effect on survival / toxicity, f-NSC cells” value (from here on “effect on survival / toxicity”) in data set [3] is “little or no effect”.
Taken in the same sequence, the figures for `COc1ccc(C(c2ccc(O)cc2)c2ccccn2)cc1` (racemic) [Compound 6, 4-((4-Methoxyphenyl)(pyridin-2-yl)methyl)phenol] were “effect similar to that described for bisacodyl” and “little or no effect”.
For the compound `C#CCOc1ccc(C(c2ccc(O)cc2)c2ccccn2)cc1` (racemic) [Compound 9, 4-((4-(Prop-2-yn-1-yloxy)phenyl)(pyridin-2-yl)methyl)phenol], in data set [1], the “effect on survival of proliferating TG1 cells” value is given as “also on the proliferating cells”. Further, the “concentrations causing a considerable decrease in survival of proliferating cells” value in data set [1] (proliferating TG1 cells) was “above 40 μM”. Also, in data set [2], the “effect on survival … (words)” value is listed as “active on the quiescent cells”. Also, in data set [3], the “concentration from which a large decrease in survival of NSC cells occurs” value was at least 40 µM.
`O=C(Oc1ccc(C(c2ccc(OC(=O)C(F)(F)F)cc2)c2ccccn2)cc1)C(F)(F)F` [Compound 5, (Pyridin-2-ylmethylene)bis(4,1-phenylene)bis(2,2,2-trifluoroacetate)]: the “effect on survival … (words)” value in data set [2] is “effect similar to that described for bisacodyl”. Further, in data set [3], the “effect on survival / toxicity” value is “little or no effect”.
`COc1ccc(C(c2ccc(OC(C)=O)cc2)c2ccccn2)cc1` (stereo not shown) [Compound 7, 4-((4-Methoxyphenyl)(pyridin-2-yl)methyl)phenyl acetate]: the “effect on survival … (words)” value in data set [2] is “effect similar to that described for bisacodyl”. For the same compound, in data set [3], the “effect on survival / toxicity” value is on record as “little or no effect”.
For `CCCCCCCCNC(C)C(O)c1ccc(SC(C)C)cc1` (stereo not shown) [Suloctidil, reference compound], the “effect on survival of proliferating TG1 cells” value in data set [1] is “overlapping cytotoxic activity”. The “effect on survival … (words)” value in data set [2] is on record as “overlapping cytotoxic activity”.
With `OCCN1CCN(CC/C=C2/c3ccccc3Sc3ccc(Cl)cc32)CC1` [Zuclopenthixol HCl, reference compound], the “effect on survival of proliferating TG1 cells” value in data set [1] is reported as “more selective effects”.
With `CC(=O)Oc1ccc(C(c2ccc(OC(C)=O)cc2)c2ccccn2)cc1` [drawing 51], the EC50 is over 100 µM in data set [1] and 1.6 ± 0.3 µM in data set [2].
Taken in the same sequence, the figures for `Oc1ccc(C(c2ccc(O)cc2)c2ccccn2)cc1` [drawing 52] were over 100 µM and 1 ± 0.5 µM.
Take `O=C(Oc1ccc(C(c2ccc(OC(=O)C(F)(F)F)cc2)c2ccccn2)cc1)C(F)(F)F` [drawing 57]: the EC50 in data set [1] is over 100 µM; in data set [2] it was 2 ± 1 µM.
For `COc1ccc(C(c2ccc(OC(C)=O)cc2)c2ccccn2)cc1` (stereo not shown) [drawing 60], the EC50 was over 100 µM in data set [1] and 9 ± 4 µM in data set [2].
